{"source": "a melting point compilation (Tetko et al.; mined from patent text by program, amines drawn as free bases though some values may be those of a salt)"}
{"units": {"melting point": "°C"}}
{"smiles": "NC(CC(=O)O)c1ccc2c(c1)OCO2", "note": "(stereo not drawn)", "melting point": "223 to 224"}
{"smiles": "CC(c1oc2ccccc2c(=O)c1-c1cccc(F)c1)n1nc(-c2ccc(OCc3ccccc3)cc2)c2c(N)ncnc21", "note": "(stereo not drawn)", "melting point": "176 to 178"}
{"smiles": "CC(C)CCCC(NC(=O)OC(C)(C)C)c1nc(-c2cccc(Br)c2)c[nH]1", "note": "(stereo not drawn)", "melting point": "134 to 136"}
{"smiles": "Cc1cn2nc(Cl)cc(C)c2n1", "melting point": "109 to 110"}
{"smiles": "Cc1cccc(-n2cc(-c3ccc4c(c3)N(C(=O)CN3CCN(C)CC3)CCO4)nn2)n1", "melting point": 132}
{"smiles": "CC1(C)CC(=O)C(SCc2ccc(F)cc2)=C(O)C1", "melting point": 112}
{"smiles": "CCOC(=O)c1cc(C)n(-c2cccc(I)c2)c1-c1ccccc1", "melting point": "143 to 144"}
{"smiles": "Cc1c(C)c(N2CCN(c3ccc(OC(F)(F)F)cc3)CC2)c(C)c2c1OC(C)(C)C2", "melting point": "216 to 219"}
{"smiles": "CCOC(=O)C1=C(C)NC(C)=C(C(=O)N[C@H](C(=O)OCC)C(C)C)[C@@H]1c1cccc([N+](=O)[O-])c1", "melting point": "135 to 136"}
{"smiles": "Cc1ccc(S(=O)(=O)NCCCCSc2ccc(NS(C)(=O)=O)cc2)cc1", "melting point": "95 to 96"}
{"smiles": "CCOc1cc(C=[N+]([O-])C(C)(C)CC(C)(C)C)ccc1OC", "melting point": 77.5}
{"smiles": "O=C1NC(=O)c2c1c(-c1ccccc1)cc1c2c2cc(O)ccc2n1CCCN1CCNCC1", "melting point": "178 to 183"}
{"smiles": "Brc1ccc(C2CCCc3cncn32)cc1", "note": "(stereo not drawn)", "melting point": 216}
{"smiles": "CCn1c(=O)n(CC)c2cc3c(N4CCN(C(=O)Nc5ccc(Oc6ccccc6)cc5)CC4)nncc3cc21", "melting point": "125 to 128"}
{"smiles": "CN(C)CCNc1nc(C(=O)Nc2nc3ccc(C#N)cc3s2)cs1", "melting point": "201 to 203"}
{"smiles": "CC(C)[C@H](NC(=O)OC(C)(C)C)[C@H]1CCn2c(c(C3=C(c4cn(-c5ccccc5)c5ccccc45)C(=O)NC3=O)c3ccccc32)C1", "melting point": "165 to 168"}
{"smiles": "CCCN(CCC)C(=O)CNc1cc(C)nc(-c2ccccc2)n1", "melting point": "107 to 108"}
{"smiles": "CCNC(=O)Nc1ccc(-c2sc3c(c2CN(C)CCOC)c(=O)n(-c2ccc(OCCOC)c(OCCOC)c2)c(=O)n3Cc2c(F)cccc2F)cc1", "melting point": "206 to 208"}
{"smiles": "CN(C)CCN(CCN(C)C)c1ccc(-c2nc3ccccc3[nH]2)cc1", "melting point": "190 to 191"}
{"smiles": "CCNC(=O)c1ccc(N2CCN(Cc3cc(C)c4c(c3)NC(=O)C(C)O4)CC2)c(F)c1", "note": "(stereo not drawn)", "melting point": "242 to 245"}
{"smiles": "CCCN(c1ccccc1)S(=O)(=O)c1ccc(C(CC2CCCC2)C(=O)Nc2nc3ccc(OC)nc3s2)cc1", "note": "(stereo not drawn)", "melting point": "83 to 85"}
{"smiles": "C=CC(=O)OCCOC(=O)Nc1ccccc1", "melting point": "66 to 68"}
{"smiles": "C=CCOc1nccnc1Cl", "melting point": "149 to 150"}
{"smiles": "CS(=O)(=O)c1nccn1-c1nc(-c2ccc(Cl)cc2)c(CCC(=O)O)o1", "melting point": "166 to 167"}
{"smiles": "O=C1N[C@H](Cc2ccc(C(F)(F)F)cc2)[C@H](c2ccc(Cl)nc2)O1", "note": "(racemic)", "melting point": "176 to 177"}
{"smiles": "COc1ccc(-c2cc(=O)n(Cc3c(Cl)cccc3Cl)nc2-c2ccc(OC)cc2)cc1", "melting point": 144}
{"smiles": "CCc1nnc2c(NC(C)=O)nc3ccccc3n12", "melting point": "193 to 195"}
{"smiles": "Cc1ccc(-c2cn3cc([N+](=O)[O-])ccc3n2)cc1", "melting point": "205 to 206"}
{"smiles": "Nc1ccnc2cc(Br)cnc12", "melting point": "168 to 169"}
{"smiles": "CCO/N=C(/C(=O)OCC)c1ccc(OCCOc2ccc3ccccc3c2)s1", "melting point": "102 to 104"}
{"smiles": "CC(C)CCCC(C)C1CCC2=C3C(=O)CC4C(C)(C)C(OC(=O)c5ccccc5)CCC4(C)C3CCC21C", "note": "(stereo not drawn)", "melting point": "189 to 190"}
{"smiles": "CS(=O)(=O)Nc1cccc(Nc2nc(NCCN3CCOCC3)c3nc[nH]c3n2)c1", "melting point": "233 to 237"}
{"smiles": "Cc1cccc2c1NC(=O)c1cccnc1N2", "melting point": "233 to 235"}
{"smiles": "Cc1c(Cc2ccccc2)c(=O)oc2cc(OC(C)c3nnn[nH]3)cc(OC(C)c3nnn[nH]3)c12", "note": "(stereo not drawn)", "melting point": "91 to 104"}
{"smiles": "COC1OCC[C@@H]1NC(=O)[C@H](CC(C)C)NC(=O)CNC(=O)C(C)(C)Oc1ccc2c(c1)Nc1ccccc1S2", "note": "(stereo partly drawn)", "melting point": "100 to 104"}
{"smiles": "CC(C)(C(=O)NC(Nc1c(Nc2cccnc2)c(=O)c1=O)C(C)(C)Cc1ccccc1)c1ccccc1", "note": "(stereo not drawn)", "melting point": "228 to 231"}
{"smiles": "CCCOc1ccccc1C(=O)Nc1ncccc1C(N)=O", "melting point": "181 to 184"}
{"smiles": "COC(=O)C(=C(C)C)N1CC(NC(=O)OCc2ccccc2)C1=O", "note": "(stereo not drawn)", "melting point": "135 to 137"}
{"smiles": "COC(=O)c1cc(C(=O)c2c(C)c(NS(=O)(=O)c3cccc(OC)c3)c3ccccn23)ccc1NC(=O)C(F)(F)F", "melting point": 220}
{"smiles": "COC12CC(C)(C)C(O1)C(O)C=C2C", "note": "(stereo not drawn)", "melting point": "52 to 54"}
{"smiles": "CNC(=O)NCC1OC(n2cc(C)c(=O)[nH]c2=O)CC1O", "note": "(stereo not drawn)", "melting point": "238 to 239"}
{"smiles": "Cc1ccn2cc(CS)nc2c1", "melting point": "164 to 168"}
{"smiles": "O=C1Cc2cc(NC(=O)C(=O)N3CCC(Oc4ccccc4)CC3)ccc2N1", "melting point": "78 to 81"}
{"smiles": "NC(=O)CN1C(=O)C[C@@H]2CCCCC[C@@H]21", "note": "(relative stereo)", "melting point": "140 to 142"}
{"smiles": "Cc1nc2c3c(c(C(=O)O)cc2n1C)CCC(c1ccccc1)N3", "note": "(stereo not drawn)", "melting point": "325 to 326"}
{"smiles": "CCOCc1nc2c(N)nc(C)c(C)c2n1NC1CCC1", "melting point": "139 to 141"}
{"smiles": "CN(CCOc1ccc(CC(Sc2ccc(Cl)cc2)C(=O)O)cc1)c1nc2ccccc2o1", "note": "(stereo not drawn)", "melting point": "156 to 157"}
{"smiles": "CCCCN1CCC2(CC1)OC(=O)c1ccccc12", "melting point": "60 to 62"}
{"smiles": "O=C(Nc1cccnn1)N1CCN(c2nccc(-c3ccccc3F)n2)CC1", "melting point": "228 to 229"}
{"smiles": "CCOC(=O)c1nc2n(c(=O)c1O)CCC=C2c1ccccc1", "melting point": 151}
{"smiles": "CCCc1cc(N2CCC(NCC(O)c3ccc4ccccc4n3)CC2)nc2sc(C(N)=O)c(N)c12", "note": "(stereo not drawn)", "melting point": "159 to 161"}
{"smiles": "Cc1ccc(C(C)C)c(OCCN(C)Cc2c(C)c(O)c(C)c(C)c2OCCO)c1", "melting point": "115 to 118"}
{"smiles": "CC(=O)OC(C)Cc1ccc(-c2ccc(C(C)=O)cc2)cc1", "note": "(stereo not drawn)", "melting point": "60 to 61"}
{"smiles": "Cc1nnc2n1-c1sc(CCc3ccc(CC(C)C)cc3)cc1C(c1ccccc1Cl)=NC2C", "note": "(stereo not drawn)", "melting point": "130 to 132"}
{"smiles": "Cc1c(Cc2cccc(C(F)(F)F)c2)sc2c(-c3cccc(C(=O)O)c3)cccc12", "melting point": "172 to 173"}
{"smiles": "Cc1cc(NS(=O)(=O)c2ccc(F)cc2)cc(C)c1S(=O)(=O)C[N+](=O)[O-]", "melting point": "152 to 154"}
{"smiles": "COC(=O)Nc1cc(F)c(Br)cc1I", "melting point": "101 to 102"}
{"smiles": "CC1(C)OC(=O)Nc2ccc(-c3cc(C#N)cs3)cc21", "melting point": "255 to 260"}
{"smiles": "Cc1cccc(C)c1NC(=O)c1cc(C)n(C)n1", "melting point": 155}
{"smiles": "COC(=O)CN(C1(C(=O)C2CCCCC2)C=C(Cl)C=CC1)S(=O)(=O)c1ccc(OC)cc1", "note": "(stereo not drawn)", "melting point": "115 to 116"}
{"smiles": "CCOC(=O)c1cc2c(OC[C@@H](O)CN3CCC(c4ccc5ccccc5c4)CC3)cccc2[nH]1", "melting point": "115 to 117"}
{"smiles": "COCCOCC(=O)N(c1c(C)c(C)cc2ccccc12)C1CCOC1=O", "note": "(stereo not drawn)", "melting point": "142 to 146"}
{"smiles": "CCc1c(C(=O)c2cc(C)cc(C)c2)n(CC=CC(=O)OC)c(=O)[nH]c1=O", "melting point": "201 to 202"}
{"smiles": "CC(C)Oc1ccc(O)cc1OCCN1C(=O)c2ccccc2C1=O", "melting point": 123}
{"smiles": "CC1CN(c2cc3ccccc3c(=O)[nH]2)CC(C)N1", "note": "(stereo not drawn)", "melting point": "208 to 210"}
{"smiles": "c1ccc2c(NCC3CCCCC3)c3cnn(C4CCCC4)c3nc2c1", "melting point": "290 to 292"}
{"smiles": "Cc1ccc(S(=O)(=O)N2CC3C(C2)C3Nc2ncc3cc(-c4ccccc4Cl)c(=O)n(C4CC4)c3n2)cc1", "note": "(stereo not drawn)", "melting point": "265 to 274"}
{"smiles": "CC12CCC3C(CC=C4CC(O)CCC43C)C1CC=C2I", "note": "(stereo not drawn)", "melting point": "169 to 171"}
{"smiles": "CCCCCCCCCCCCCc1ccc(-c2nc(-c3ccccc3Cl)nn2C)cc1", "melting point": "55 to 57"}
{"smiles": "O=C1C2=C(CCCC2)C(=O)N1c1ccc(Cl)cc1F", "melting point": "81 to 82"}
{"smiles": "CC(N)=CC(=O)C1=C(C)CCCC1(C)C", "melting point": "124 to 125"}
{"smiles": "Nc1cc(Cl)c(S)cc1S(N)(=O)=O", "melting point": "192 to 195"}
{"smiles": "COc1ccc2c(c1)C(=O)C(Cc1c[nH]c3ccccc13)CO2", "note": "(stereo not drawn)", "melting point": "121 to 123"}
{"smiles": "CC(=O)N1CCCC2=C1CCc1cccc(Cl)c12", "melting point": "117 to 118"}
{"smiles": "NS(=O)(=O)c1cc2ncccc2o1", "melting point": "219 to 221"}
{"smiles": "CC(C)(C)c1ccc(-c2nn(-c3ccc(F)cc3F)c3c2C2CCC3C2)cc1", "note": "(stereo not drawn)", "melting point": "130 to 132"}
{"smiles": "FC(F)(F)c1ccc(Cl)cn1", "melting point": "36 to 37"}
{"smiles": "CCN(CC)C(=O)c1cc(-c2ccccc2)ccc1-c1ccc(OC)cc1", "melting point": "139 to 141"}
{"smiles": "CCCCCCNC1=NS(=O)(=O)c2sc(Cl)cc2N1", "melting point": "207 to 209"}
{"smiles": "CC1(NC(=NC#N)Nc2cccnc2)CCC1", "melting point": "210 to 212"}
{"smiles": "Cc1cnnc2c1C(=O)CC(c1cc(Cl)sc1Cl)C2", "note": "(stereo not drawn)", "melting point": "137 to 138"}
{"smiles": "Cc1nc(N)nc(N)c1C=CC(C)(C)c1ccc(Cl)cc1", "melting point": "195 to 200"}
{"smiles": "NS(=O)(=O)c1ccc(-n2nc(C(F)(F)F)cc2-c2ccc(-c3cocn3)cc2)cc1", "melting point": "170 to 172"}
{"smiles": "C=CCC12CC(c3ccccc31)c1ccccc12", "melting point": "42 to 43"}
{"smiles": "CC(c1ccccc1)N1CCC(CO)C1", "note": "(stereo not drawn)", "melting point": "86 to 88"}
{"smiles": "O=C1CC(c2cccc(-n3ccnc3)c2)=Nc2cc(OCCO)c(-c3ccc(F)cc3)cc2N1", "melting point": 225}
{"smiles": "COc1ccc(C(=O)C2CCN(CCCO)CC2)cc1", "melting point": "102 to 105"}
{"smiles": "Cc1ccccc1C(=O)Nc1ccc(C(=O)N2CCCC(NC(=O)CN(C)C)c3ccccc32)cc1", "note": "(stereo not drawn)", "melting point": "214 to 216"}
{"smiles": "C[Si](C)(C)c1ccc(O)c(C(=O)C=C(O)c2ccc(C(=O)O)cc2)c1", "melting point": "207 to 209"}
{"smiles": "C[C@@H](CCCCC(=O)O)NC(=O)OCc1ccccc1", "melting point": "82 to 83"}
{"smiles": "CCC1C(C)=NN=C(c2ccccc2F)c2cc(OC)c(OC)cc21", "note": "(stereo not drawn)", "melting point": "86 to 88"}
{"smiles": "COc1cccc(CC(=O)O)c1OCCCc1cn(-c2ccc(C#N)nn2)nc1C(C)C", "melting point": "132 to 133"}
{"smiles": "COC(=O)c1ccc(/C=C/c2cc3c(cc2CCCO)C(C)(C)CCC3(C)C)cc1", "melting point": "109 to 116"}
{"smiles": "COC(=O)CS(=O)(=O)CCC=C1SC=CS1", "melting point": "133 to 135"}
{"smiles": "O=C(OCC1CCCC1)c1ncn2c1[C@@H]1CCCN1C(=O)c1c(Cl)cccc1-2", "melting point": "112 to 114"}
{"smiles": "Cc1nc2ccccn2c1-c1csc(Nc2cccc(C(=O)Nc3ccccc3N)c2)n1", "melting point": "195 to 197"}
{"smiles": "COc1cc(C(=O)c2c[nH]c(-c3cn(S(=O)(=O)c4ccccc4)c4ccccc34)n2)cc(OC)c1OC", "melting point": "110 to 112"}
{"smiles": "O=C(O)CCC1CCN(C(=O)CN2CCN(c3ccncc3)CC2)CC1", "melting point": "90 to 92"}
